Patent US7855290B2, “Pyridine derivatives and pyrimidine derivatives (3)” (Eisai R&D Management Co., Ltd., priority 2005, dated 2010)

Tests used:
[1] = target: T1, His6-HGFR (HGFR cytoplasmic domain) (Homo sapiens, UniProt P08581); test: Inhibitory activity against HGFR tyrosine kinase activity (HTRF); format: biochemical; conditions: biotin-poly(GT), ATP, 30° C. 10 min
T1 construct: made in house; host or cells: Sf9 insect cells (Spodoptera frugiperda), baculovirus, pFastBac-HT vector
Summary of the method: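 Sf9-expressed, Ni-NTA-purified N-terminal His6-tagged HGFR cytoplasmic domain (from Lys974), 30 ng, phosphorylates 250 ng biotin-poly(GT) in Hepes pH 7.4 with MgCl2, MnCl2 and Na3VO4. Reaction started with 4 μM ATP stock, run 10 min at 30° C, stopped with EDTA. Phosphotyrosine is detected by HTRF.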

[2] = system: Human gastric cancer cells (MKN-45); test: Inhibitory activity against the proliferation of human gastric cancer cells (MKN-45); format: cell-based; conditions: 72 h, MKN-45, 1% FBS RPMI1640, 3 days, Cell Counting Kit-8
Summary of the method: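 MKN-45 cells seeded overnight in RPMI1640 with 1% FBS, then exposed to compound for 3 days at 37° C, 5% CO2. Viability read with CCK-8 after about 1.5 hrs, absorbance at 450 nm (reference 660 nm).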

T1 sequence (P08581 956-1390 limits assumed): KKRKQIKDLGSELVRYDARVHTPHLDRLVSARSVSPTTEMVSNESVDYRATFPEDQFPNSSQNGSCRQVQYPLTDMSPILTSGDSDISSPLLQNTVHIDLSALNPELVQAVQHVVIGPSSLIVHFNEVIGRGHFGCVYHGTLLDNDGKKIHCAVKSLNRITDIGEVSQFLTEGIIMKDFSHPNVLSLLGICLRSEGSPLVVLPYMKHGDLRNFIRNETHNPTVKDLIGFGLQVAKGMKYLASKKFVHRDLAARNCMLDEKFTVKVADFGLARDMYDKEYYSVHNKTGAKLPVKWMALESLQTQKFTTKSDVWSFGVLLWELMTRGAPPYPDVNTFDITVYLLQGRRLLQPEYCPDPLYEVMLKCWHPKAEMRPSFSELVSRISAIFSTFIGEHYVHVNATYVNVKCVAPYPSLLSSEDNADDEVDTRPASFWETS

| SMILES | IC50 [1] | IC50 [2] |
| --- | --- | --- |
| O=C(Nc1cc(Oc2ccc(NC(=O)C3(C(=O)Nc4ccc(F)cc4)CC3)c(F)c2)ccn1)N1CCC(N2CCNCC2)CC1 [Example 71, N-(4-Fluorophenyl)-N′-{2-fluoro-4-[(2-{[(4-piperazin-1-ylpiperidin-1-yl)carbonyl]amino}pyridin-4-yl)oxy]phenyl}cyclopropane-1,1-dicarboxamide] | 121 nM | 61 nM |
| CCN(CC)CCCNC(=O)Nc1cc(Oc2ccc(NC(=O)C3(C(=O)Nc4ccc(F)cc4)CC3)c(Cl)c2)ccn1 [Example 43, N-[2-Chloro-4-({2-[({[3-(diethylamino)propyl]amino}carbonyl)amino]pyridin-4-yl}oxy)phenyl]-N′-(4-fluorophenyl)cyclopropane-1,1-dicarboxamide] | 180 nM | 280 nM |
| O=C(Nc1cc(Oc2ccc(NC(=O)C3(C(=O)Nc4ccc(F)cc4)CC3)c(F)c2)ccn1)N1CCCC1 [Example 62, N-(4-Fluorophenyl)-N′-[2-fluoro-4-({2-[(pyrrolidin-1-ylcarbonyl)amino]pyridin-4-yl}oxy)phenyl]cyclopropane-1,1-dicarboxamide] | 20 nM | 25 nM |
| CN(C)C1CN(C2CCN(C(=O)Nc3cc(Oc4ccc(NC(=O)C5(C(=O)Nc6ccccc6)CC5)c(F)c4)ccn3)CC2)C1 [Example 55] | 120 nM | 43 nM |
| CN1CCC(N(C)C(=O)Nc2cc(Oc3ccc(NC(=O)C4(C(=O)Nc5ccc(F)cc5)CC4)cc3F)ncn2)CC1 [Example 33, N-(3-Fluoro-4-{[6-({[methyl(1-methylpiperidin-4-yl)amino]carbonyl}amino)pyrimidin-4-yl]oxy}phenyl)-N′-(4-fluorophenyl)cyclopropane-1,1-dicarboxamide] | 26 nM | 55 nM |
| CN(C)[C@@H]1CCN(C(=O)Nc2cc(Oc3ccc(NC(=O)C4(C(=O)Nc5ccc(F)cc5)CC4)cc3F)ccn2)C1 [Example 36, N-(4-{[2-({[(3R)-3-(Dimethylamino)pyrrolidin-1-yl]carbonyl}amino)pyridin-4-yl]oxy}-3-fluorophenyl)-N′-(4-fluorophenyl)cyclopropane-1,1-dicarboxamide] | 46 nM | 22 nM |
| O=C(Nc1cc(Oc2ccc(NC(=O)C3(C(=O)Nc4ccc(F)cc4)CC3)c(F)c2)ccn1)N1CCC1 [Example 61, N-[4-({2-[(Azetidin-1-ylcarbonyl)amino]pyridin-4-yl]oxy}-2-fluorophenyl]-N′-(4-fluorophenyl)cyclopropane-1,1-dicarboxamide] | 15 nM | 15 nM |
| CN1CCC(N(C)C(=O)Nc2cc(Oc3ccc(NC(=O)C4(C(=O)Nc5ccc(F)cc5)CC4)cc3)ccn2)CC1 [Example 12] | 37 nM | 31 nM |
| O=C(Nc1cc(Oc2ccc(NC(=O)C3(C(=O)Nc4ccc(F)cc4)CC3)cc2)ccn1)N1CCCC1 [Example 69, N-(4-Fluorophenyl)-N′-[4-({2-[(pyrrolidin-1-ylcarbonyl)amino]pyridin-4-yl}oxy)phenyl]cyclopropane-1,1-dicarboxamide] | 31 nM | 77 nM |
| O=C(Nc1cc(Oc2ccc(NC(=O)C3(C(=O)Nc4ccc(F)cc4)CC3)c(F)c2)ccn1)N1CCC(N2CCC2)CC1 [Example 9, N-{4-[(2-{[(4-Azetidin-1-ylpiperidin-1-yl)carbonyl]amino}pyridin-4-yl)oxy]-2-fluorophenyl}-N′-(4-fluorophenyl)cyclopropane-1,1-dicarboxamide] | 53 nM | 26 nM |
| O=C(Nc1cc(Oc2ccc(NC(=O)C3(C(=O)Nc4ccc(F)cc4)CC3)cc2)ccn1)N1CCC1 [Example 70, N-[4-({2-[(Azetidin-1-ylcarbonyl)amino]pyridin-4-yl}oxy)phenyl]-N′-(4-fluorophenyl)cyclopropane-1,1-dicarboxamide] | 19 nM | 54 nM |
| CN(C)[C@H]1CCN(C(=O)Nc2cc(Oc3ccc(NC(=O)C4(C(=O)Nc5ccc(F)cc5)CC4)cc3)ccn2)C1 [Example 41, N-(4-{[2-({[(3S)-3-(Dimethylamino)pyrrolidin-1-yl]carbonyl}amino)pyridin-4-yl]oxy}phenyl)-N′-(4-fluorophenyl)cyclopropane-1,1-dicarboxamide] | 44 nM | 42 nM |
| COC1CN(C(=O)Nc2cc(Oc3ccc(NC(=O)C4(C(=O)Nc5ccc(F)cc5)CC4)c(F)c3)ccn2)C1 [Example 78, N-[2-Fluoro-4-[(2-{[(3-methoxyazetidin-1-yl)carbonyl]amino}pyridin-4-yl)oxy]phenyl}-N′-(4-fluorophenyl)cyclopropane-1,1-dicarboxamide] | 14 nM | 12 nM |
| O=C(Nc1cc(Oc2ccc(NC(=O)C3(C(=O)Nc4ccc(F)cc4)CC3)cc2F)ccn1)N1CCC(N2CCC2)CC1 [Example 11, N-{4-[(2-{[(4-Azetidin-1-ylpiperidin-1-yl)carbonyl]amino}pyridin-4-yl)oxy]-3-fluorophenyl}-N′-(4-fluorophenyl)cyclopropane-1,1-dicarboxamide] | 46 nM | 34 nM |
| CN(C)C1CN(C2CCN(C(=O)Nc3cc(Oc4ccc(NC(=O)C5(C(=O)Nc6ccc(F)cc6)CC5)cc4)ccn3)CC2)C1 [Example 38, N-[4-({2-[({4-[3-(Dimethylamino)azetidin-1-yl]piperidin-1-yl}carbonyl)amino]pyridin-4-yl}oxy)phenyl]-N′-(4-fluorophenyl)cyclopropane-1,1-dicarboxamide] | 52 nM | 52 nM |
| O=C(Nc1cc(Oc2cc(F)c(NC(=O)C3(C(=O)Nc4ccc(F)cc4)CC3)cc2F)ccn1)N1CCC(O)CC1 [Example 105] | 15 nM | 4.1 nM |
| O=C(Nc1cc(Oc2cc(F)c(NC(=O)C3(C(=O)Nc4ccc(F)cc4)CC3)cc2F)ncn1)N1CC(CO)C1 [Example 99, N-(2,5-Difluoro-4-{[4-({[3-(hydroxymethyl)azetidin-1-yl]carbonyl}amino)pyrimidin-6-yl]oxy}phenyl)-N′-(4-fluorophenyl)cyclopropane-1,1-dicarboxamide] | 33 nM | 18 nM |
| CCN(CC)CCCN(C)C(=O)Nc1cc(Oc2ccc(NC(=O)C3(C(=O)Nc4ccc(F)cc4)CC3)cc2F)ccn1 [Example 44, N-(4-{[2-({[[3-(Diethylamino)propyl](methyl)amino]carbonyl}amino)pyridin-4-yl]oxy}-3-fluorophenyl)-N′-(4-fluorophenyl)cyclopropane-1,1-dicarboxamide] | 91 nM | 54 nM |
| O=C(Nc1cc(Oc2ccc(NC(=O)C3(C(=O)Nc4ccc(F)cc4)CC3)cc2)ccn1)N1CCC(CN2CCC2)CC1 [Example 27, N-(4-{[2-({f [4-(Azetidin-1-ylmethyl)piperidin-1-yl]carbonyl}amino)pyridin-4-yl]oxy}phenyl)-N′-(4-fluorophenyl)cyclopropane-1,1-dicarboxamide] | 59 nM | 48 nM |
| O=C(Nc1cc(Oc2ccc(NC(=O)C3(C(=O)Nc4ccc(F)cc4)CC3)cc2F)ccn1)N1CCC1 [Example 65, N-[4-({2-[(Azetidin-1-ylcarbonyl)amino]pyridin-4-yl}oxy)-3-fluorophenyl]-N′-(4-fluorophenyl)cyclopropane-1,1-dicarboxamide] | 15 nM | 23 nM |
| CN(C)[C@@H]1CCN(C(=O)Nc2cc(Oc3ccc(NC(=O)C4(C(=O)Nc5ccc(F)cc5)CC4)cc3)ccn2)C1 [Example 42, N-(4-{[2-({[(3R)-3-(Dimethylamino)pyrrolidin-1-yl]carbonyl}amino)pyridin-4-yl]oxy}phenyl)-N′-(4-fluorophenyl)cyclopropane-1,1-dicarboxamide] | 57 nM | 60 nM |
| CN1CCC(N2CCN(C(=O)Nc3cc(Oc4ccc(NC(=O)C5(C(=O)Nc6ccc(F)cc6)CC5)cc4)ccn3)CC2)CC1 [Example 31, N-(4-Fluorophenyl)-N′-(4-{[2-({[4-(1-methylpiperidin-4-yl)piperazin-1-yl]carbonyl}amino)pyridin-4-yl]oxy}phenyl)cyclopropane-1,1-dicarboxamide] | 62 nM | 31 nM |
